Laboratory results: US7138361B2, “Herbicidal heterocycles” (E. I. du Pont de Nemours and Company, priority 2000, dated 2006)

How the values were obtained:
Type in all cases: in vivo
[1] = tested on: Surinam grass (Brachiaria decumbens); test: Test B postemergence; conditions: 13 to 15 days
Summary of the method: (§1)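 Pre: seeded pots sprayed, chemical in non-phytotoxic solvent/surfactant mix. Post: plants 2–18 cm, 1–4 leaf, same formulation. Greenhouse 13–15 d; visual % control vs untreated, 0–100 scale.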

[2] = tested on: barnyardgrass (Echinochloa crus-galli); test: Test B postemergence; conditions: 13 to 15 days
Summary of the method: as §1

corn (Zea mays) [3] = test: Test B postemergence; conditions: 13 to 15 days
Summary of the method: as §1

[4] = tested on: crabgrass (Digitaria sanguinalis); test: Test B postemergence; conditions: 13 to 15 days
Summary of the method: as §1

[5] = tested on: giant foxtail (Setaria faberii); test: Test B postemergence; conditions: 13 to 15 days
Summary of the method: as §1

[6] = tested on: morning glory (Ipomoea hederacea); test: Test B postemergence; conditions: Rate 500 g/ha, scale 0 to 100, 0 is no effect, 100 is complete control, 13 to 15 days
Summary of the method: as §1

[7] = tested on: pigweed (Amaranthus retroflexus); test: Test B postemergence; conditions: Rate 500 g/ha, scale 0 to 100, 0 is no effect, 100 is complete control, 13 to 15 days
Summary of the method: as §1

[8] = tested on: velvetleaf (Abutilon theophrasti); test: Test B postemergence; conditions: Rate 500 g/ha, scale 0 to 100, 0 is no effect, 100 is complete control, 13 to 15 days
Summary of the method: as §1

[9] = tested on: wheat (Triticum aestivum); test: Test B postemergence; conditions: Rate 500 g/ha, scale 0 to 100, 0 is no effect, 100 is complete control, 13 to 15 days
Summary of the method: as §1

wild oat (Avena fatua) = test: Test B postemergence; conditions: Rate 500 g/ha, scale 0 to 100, 0 is no effect, 100 is complete control, 13 to 15 days
Summary of the method: as §1

Nightshade = test: Test C preemergence
Sunflower [10] = test: Test C preemergence; conditions: Rate 125 g/ha; scale 0 to 100, 0 no effect, 100 complete control
[11] = tested on: common ragweed (Ambrosia elatior); test: Test C preemergence; conditions: for Plant response rating (0 to 100), Ragweed, Common: Rate 500 g/ha, visual evaluation after 12 to 14 days
Summary of the method: (§2)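 Formulation: non-phytotoxic solvent mix incl. surfactant. Pre: applied right after planting. Post: 1–4-leaf seedlings. Read: visual 0–100, day 12–14, greenhouse.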

corn (Zea mays) [12] = test: Test C preemergence; conditions: for Plant response rating (0 to 100), Corn: Rate 500 g/ha, visual evaluation after 12 to 14 days
Summary of the method: as §2

[13] = tested on: goosegrass (Eleusine indica); test: Test C preemergence; conditions: for Plant response rating (0 to 100), Goosegrass: Rate 500 g/ha, visual evaluation after 12 to 14 days
Summary of the method: as §2

[14] = tested on: johnsongrass (Sorghum halepense); test: Test C preemergence; conditions: for Plant response rating (0 to 100), Johnsongrass: Rate 500 g/ha, visual evaluation after 12 to 14 days
Summary of the method: as §2

[15] = tested on: lambsquarters (Chenopodium album); test: Test C preemergence; conditions: for Plant response rating (0 to 100), Lambsquarters: Rate 500 g/ha, visual evaluation after 12 to 14 days
Summary of the method: as §2

[16] = tested on: morningglory (Ipomoea hederacea); test: Test C preemergence; conditions: for Plant response rating (0 to 100), Morningglory: Rate 500 g/ha, visual evaluation after 12 to 14 days
Summary of the method: as §2

[17] = tested on: velvetleaf (Abutilon theophrasti); test: Test C preemergence; conditions: for Plant response rating (0 to 100), Velvetleaf: Rate 500 g/ha, visual evaluation after 12 to 14 days
Summary of the method: as §2

[18] = tested on: yellow nutsedge (Cyperus esculentus); test: Test C preemergence; conditions: for Plant response rating (0 to 100), Nutsedge: Rate 500 g/ha, visual evaluation after 12 to 14 days
Summary of the method: as §2

Sunflower [19] = test: Test C preemergence; conditions: Rate 500 g/ha, visual evaluation after 12 to 14 days
[20] = Rate 125 g/ha, scale 0 (no effect) to 100 (complete control)
[21] = Rate 500 g/ha, scale 0 to 100, 0 is no effect, 100 is complete control
[22] = Rate 125 g/ha, scale 0 to 100, 0 no effect, 100 complete control
[23] = Rate 250 g/ha, scale 0 to 100, 0 no effect, 100 complete control
[24] = preemergence, Rate 62 g/ha, scale 0 to 100
[25] = preemergence, Rate 250 g/ha, scale 0 to 100, 0 no effect, 100 complete control

SMILES: CCCC(C)c1ccn(C2CCN(c3cccc(OC)c3)C2=O)n1 (stereo not shown) [Compound 99]
- Plant response rating, Surinam grass [1, 20]: 0
- Plant response rating, Surinam grass [1, 21]: 0
- Plant response rating, Barnyardgrass [2, 20]: 0
- Plant response rating, Barnyardgrass [2, 21]: 0
- Plant response rating, Corn (corn (Zea mays) [3]; [20]): 0
- Plant response rating, Corn (corn (Zea mays) [3]; [21]): 0
- Plant response rating, Crabgrass [4, 20]: 0
- Plant response rating, Crabgrass [4, 21]: 0
- Plant response rating, Foxtail, Giant [5, 20]: 0
- Plant response rating, Foxtail, Giant [5, 21]: 0
- Plant response rating, Morningglory [6]: 0
- Plant response rating, Pigweed [7]: 0
- Plant response rating, Velvetleaf [8]: 0
- Plant response rating, Wheat [9]: 0
- Plant response rating, Wild Oat (wild oat (Avena fatua)): 0
- Plant response rating, Nightshade (Nightshade; Rate 62 g/ha, scale 0 to 100): 0
- Plant response rating, Nightshade (Nightshade; [22]): 0
- Plant response rating, Nightshade (Nightshade; [23]): 0
- Plant response rating, Sunflower (Sunflower [10]): 0
- Plant response rating, Ragweed, Common [11, 22]: 0
- Plant response rating, Ragweed, Common [11, 24]: 0
- Plant response rating (0 to 100), Ragweed, Common ([11]; preemergence): 0
- Plant response rating, Ragweed, Common [11, 25]: 0
- Plant response rating, Corn (corn (Zea mays) [12]; [22]): 0
- Plant response rating, Corn (corn (Zea mays) [12]; [24]): 0
- Plant response rating (0 to 100), Corn (corn (Zea mays) [12]; preemergence): 20
- Plant response rating, Corn (corn (Zea mays) [12]; [25]): 0
- Plant response rating, Goosegrass [13, 22]: 80
- Plant response rating, Goosegrass [13, 24]: 80
- Plant response rating (0 to 100), Goosegrass ([13]; preemergence): 100
- Plant response rating, Goosegrass [13, 25]: 90
- Plant response rating, Johnsongrass [14, 22]: 0
- Plant response rating, Johnsongrass [14, 24]: 0
- Plant response rating (0 to 100), Johnsongrass ([14]; preemergence): 90
- Plant response rating, Johnsongrass [14, 25]: 0
- Plant response rating, Lambsquarters [15, 22]: 100
- Plant response rating, Lambsquarters [15, 24]: 100
- Plant response rating (0 to 100), Lambsquarters ([15]; preemergence): 100
- Plant response rating, Lambsquarters [15, 25]: 100
- Plant response rating, Morningglory [16, 22]: 20
- Plant response rating, Morningglory [16, 24]: 0
- Plant response rating (0 to 100), Morningglory ([16]; preemergence): 20
- Plant response rating, Morningglory [16, 25]: 20
- Plant response rating, Velvetleaf [17, 22]: 0
- Plant response rating, Velvetleaf [17, 24]: 0
- Plant response rating (0 to 100), Velvetleaf ([17]; preemergence): 0
- Plant response rating, Velvetleaf [17, 25]: 0
- Plant response rating, Nutsedge [18, 22]: 0
- Plant response rating, Nutsedge [18, 24]: 0
- Plant response rating (0 to 100), Nutsedge ([18]; preemergence): 90
- Plant response rating, Nutsedge [18, 25]: 0
- Plant response rating (0 to 100), Sunflower (Sunflower [19]): 0

SMILES: CCCC(C)c1ccn(C2CCN(c3cccc(C(F)(F)F)c3)C2=O)n1 (stereo not shown) [Compound 100]
- Plant response rating, Surinam grass [1, 20]: 0
- Plant response rating, Surinam grass [1, 21]: 0
- Plant response rating, Barnyardgrass [2, 20]: 0
- Plant response rating, Barnyardgrass [2, 21]: 0
- Plant response rating, Corn (corn (Zea mays) [3]; [20]): 0
- Plant response rating, Corn (corn (Zea mays) [3]; [21]): 0
- Plant response rating, Crabgrass [4, 20]: 0
- Plant response rating, Crabgrass [4, 21]: 0
- Plant response rating, Foxtail, Giant [5, 20]: 0
- Plant response rating, Foxtail, Giant [5, 21]: 0
- Plant response rating, Morningglory [6]: 0
- Plant response rating, Pigweed [7]: 0
- Plant response rating, Velvetleaf [8]: 0
- Plant response rating, Wheat [9]: 0
- Plant response rating, Wild Oat (wild oat (Avena fatua)): 0
- Plant response rating, Nightshade (Nightshade; Rate 62 g/ha, scale 0 to 100): 0
- Plant response rating, Nightshade (Nightshade; [22]): 0
- Plant response rating, Nightshade (Nightshade; [23]): 0
- Plant response rating, Sunflower (Sunflower [10]): 0
- Plant response rating, Ragweed, Common [11, 22]: 0
- Plant response rating, Ragweed, Common [11, 24]: 0
- Plant response rating (0 to 100), Ragweed, Common ([11]; preemergence): 0
- Plant response rating, Ragweed, Common [11, 25]: 0
- Plant response rating, Corn (corn (Zea mays) [12]; [24]): 20
- Plant response rating (0 to 100), Corn (corn (Zea mays) [12]; preemergence): 20
- Plant response rating, Corn (corn (Zea mays) [12]; [25]): 20
- Plant response rating, Goosegrass [13, 22]: 90
- Plant response rating, Goosegrass [13, 24]: 80
- Plant response rating (0 to 100), Goosegrass ([13]; preemergence): 100
- Plant response rating, Goosegrass [13, 25]: 100
- Plant response rating, Johnsongrass [14, 22]: 90
- Plant response rating, Johnsongrass [14, 24]: 0
- Plant response rating (0 to 100), Johnsongrass ([14]; preemergence): 100
- Plant response rating, Johnsongrass [14, 25]: 90
- Plant response rating, Lambsquarters [15, 22]: 100
- Plant response rating, Lambsquarters [15, 24]: 90
- Plant response rating (0 to 100), Lambsquarters ([15]; preemergence): 100
- Plant response rating, Lambsquarters [15, 25]: 100
- Plant response rating, Morningglory [16, 22]: 0
- Plant response rating, Morningglory [16, 24]: 0
- Plant response rating (0 to 100), Morningglory ([16]; preemergence): 0
- Plant response rating, Morningglory [16, 25]: 0
- Plant response rating, Velvetleaf [17, 22]: 0
- Plant response rating, Velvetleaf [17, 24]: 0
- Plant response rating (0 to 100), Velvetleaf ([17]; preemergence): 0
- Plant response rating, Velvetleaf [17, 25]: 0
- Plant response rating, Nutsedge [18, 22]: 0
- Plant response rating, Nutsedge [18, 24]: 0
- Plant response rating (0 to 100), Nutsedge ([18]; preemergence): 0
- Plant response rating, Nutsedge [18, 25]: 0
- Plant response rating (0 to 100), Sunflower (Sunflower [19]): 0
